Assays:
STAT6 protein = target: T1, STAT6 protein (Homo sapiens, UniProt P42226); test: Fluorescence polarization (FP) binding assay, STAT6; settings: FP competition, 5 nM fluorescein-labeled tracer, 200 nM protein, PBS pH7.4; read-out: Binding STAT6
T1 sequence (P42226 1-847): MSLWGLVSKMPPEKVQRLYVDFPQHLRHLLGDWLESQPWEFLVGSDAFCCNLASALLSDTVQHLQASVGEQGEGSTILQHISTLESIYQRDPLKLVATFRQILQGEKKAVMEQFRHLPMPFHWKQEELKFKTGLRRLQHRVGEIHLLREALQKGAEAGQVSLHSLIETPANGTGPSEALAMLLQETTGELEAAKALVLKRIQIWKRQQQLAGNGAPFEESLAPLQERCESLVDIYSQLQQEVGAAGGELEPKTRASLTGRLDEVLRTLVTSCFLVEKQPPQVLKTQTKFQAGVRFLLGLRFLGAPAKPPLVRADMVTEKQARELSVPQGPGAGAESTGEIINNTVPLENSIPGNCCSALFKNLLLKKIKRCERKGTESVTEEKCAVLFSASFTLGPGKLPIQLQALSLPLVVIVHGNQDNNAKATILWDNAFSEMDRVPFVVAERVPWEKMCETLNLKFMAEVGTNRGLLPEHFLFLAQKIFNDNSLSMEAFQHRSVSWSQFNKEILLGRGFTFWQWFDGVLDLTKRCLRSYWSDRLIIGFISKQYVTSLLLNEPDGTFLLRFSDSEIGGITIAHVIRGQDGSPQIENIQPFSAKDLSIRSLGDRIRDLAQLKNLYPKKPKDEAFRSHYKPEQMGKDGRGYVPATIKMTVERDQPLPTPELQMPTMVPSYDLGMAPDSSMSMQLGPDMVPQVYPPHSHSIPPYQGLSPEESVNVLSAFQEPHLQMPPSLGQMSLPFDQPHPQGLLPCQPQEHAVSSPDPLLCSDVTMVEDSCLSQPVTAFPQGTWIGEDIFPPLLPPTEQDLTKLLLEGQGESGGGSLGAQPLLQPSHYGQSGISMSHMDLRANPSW
In short: (§1)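 Polarization read after 1 h equilibration at room temperature (preceded by 15 min shaking) of 200 nM STAT5 and/or STAT6 with 5 nM fluorescein tracer. Buffer: PBS pH 7.4 plus 0.01% BGG, 0.01% Tween-20, 2 mM DTT; inhibition constants derived by nonlinear fitting.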

STAT5A = target: T2, STAT5A (Homo sapiens, UniProt P42229); test: Fluorescence polarization (FP) binding assay, STAT5A; settings: FP competition, 5 nM fluorescein-labeled tracer, 200 nM protein, PBS pH7.4
T2 sequence (P42229 1-794): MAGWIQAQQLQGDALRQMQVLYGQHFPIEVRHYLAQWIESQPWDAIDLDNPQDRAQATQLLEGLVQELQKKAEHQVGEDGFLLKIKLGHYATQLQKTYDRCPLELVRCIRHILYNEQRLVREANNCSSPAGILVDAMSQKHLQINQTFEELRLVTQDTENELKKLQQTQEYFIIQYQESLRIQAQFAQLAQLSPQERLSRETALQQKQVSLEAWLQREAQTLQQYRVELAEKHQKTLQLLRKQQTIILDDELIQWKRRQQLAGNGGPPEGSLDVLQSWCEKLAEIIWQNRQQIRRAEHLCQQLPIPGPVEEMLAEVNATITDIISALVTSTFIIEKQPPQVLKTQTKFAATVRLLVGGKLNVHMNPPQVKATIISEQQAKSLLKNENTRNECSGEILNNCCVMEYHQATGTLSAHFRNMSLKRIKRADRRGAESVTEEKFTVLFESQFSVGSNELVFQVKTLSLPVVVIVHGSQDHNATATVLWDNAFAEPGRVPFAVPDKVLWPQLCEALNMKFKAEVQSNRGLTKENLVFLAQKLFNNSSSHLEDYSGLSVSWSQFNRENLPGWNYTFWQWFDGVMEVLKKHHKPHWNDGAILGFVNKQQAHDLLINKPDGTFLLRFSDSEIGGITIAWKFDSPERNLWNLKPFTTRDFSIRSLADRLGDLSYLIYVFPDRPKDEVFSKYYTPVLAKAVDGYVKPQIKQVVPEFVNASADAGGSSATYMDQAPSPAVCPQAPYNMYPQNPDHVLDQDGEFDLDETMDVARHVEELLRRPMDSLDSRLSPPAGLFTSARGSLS
In short: as §1

Ki (STAT6 protein)	Ki (STAT5A)	Compound
1 to 10 µM	> 10 µM	CN(Cc1ccc(Cl)cc1)C(=O)[C@@H]1CCCN1C(=O)[C@@H](NC(=O)c1cc2cc(C(F)(F)P(=O)(O)O)ccc2s1)C(C)(C)C [Compound 73, ((2-(((S)-1-((S)-2-((4-chlorobenzyl)(methyl)carbamoyl)pyrrolidin-1-yl)-3,3-dimethyl-1-oxobutan-2-yl)carbamoyl)benzo[b]thiophen-5-yl)difluoromethyl)phosphonic acid]
1 to 10 µM	> 10 µM	CN(Cc1ccc(Br)cc1)C(=O)[C@@H]1CCCN1C(=O)[C@@H](NC(=O)c1cc2cc(C(F)(F)P(=O)(O)O)ccc2s1)C(C)(C)C [Compound 74, ((2-(((S)-1-((S)-2-((4-bromobenzyl)(methyl)carbamoyl)pyrrolidin-1-yl)-3,3-dimethyl-1-oxobutan-2-yl)carbamoyl)benzo[b]thiophen-5-yl)difluoromethyl)phosphonic acid]
1 to 10 µM	> 10 µM	CC(C)(C)[C@H](NC(=O)c1cc2cc(C(F)(F)P(=O)(O)O)ccc2s1)C(=O)N1CCC[C@H]1C(=O)N(Cc1ccccc1)C1CCCCC1 [Compound 75, ((2-(((S)-1-((S)-2-(benzyl(cyclohexyl)carbamoyl)pyrrolidin-1-yl)-3,3-dimethyl-1-oxobutan-2-yl)carbamoyl)benzo[b]thiophen-5-yl)difluoromethyl)phosphonic acid]
1 to 10 µM	> 10 µM	CC(C)(C)[C@H](NC(=O)c1cc2cc(C(F)(F)P(=O)(O)O)ccc2s1)C(=O)N1CCC[C@H]1C(=O)N(Cc1ccccc1)C1CCOCC1 [Compound 76, ((2-(((S)-1-((S)-2-(benzyl(tetrahydro-2H-pyran-4-yl)carbamoyl)pyrrolidin-1-yl)-3,3-dimethyl-1-oxobutan-2-yl)carbamoyl)benzo[b]thiophen-5-yl)difluoromethyl)phosphonic acid]
> 10 µM	> 10 µM	CC(C)(C)[C@H](NC(=O)c1cc2cc(C(F)(F)P(=O)(O)O)ccc2s1)C(=O)N1CCC[C@H]1C(=O)N1CC[C@H]2CCN[C@H]2C1 [Compound 78, ((2-(((S)-3,3-dimethyl-1-((S)-2-((3aR,7aR)-octahydro-1H-pyrrolo[2,3-c]pyridine-6-carbonyl)pyrrolidin-1-yl)-1-oxobutan-2-yl)carbamoyl)benzo[b]thiophen-5-yl)difluoromethyl)phosphonic acid]
> 10 µM	> 10 µM	CC(C)(C)[C@H](NC(=O)c1cc2cc(C(F)(F)P(=O)(O)O)ccc2s1)C(=O)N1CCC[C@H]1C(=O)N1CC[C@@H]2CNC[C@@H]21 [Compound 79, ((2-(((S)-3,3-dimethyl-1-((S)-2-((3aR,6aR)-octahydropyrrolo[3,4-b]pyrrole-1-carbonyl)pyrrolidin-1-yl)-1-oxobutan-2-yl)carbamoyl)benzo[b]thiophen-5-yl)difluoromethyl)phosphonic acid]
> 10 µM	> 10 µM	CC(C)(C)[C@H](NC(=O)c1cc2cc(C(F)(F)P(=O)(O)O)ccc2s1)C(=O)N1CCC[C@H]1C(=O)N1C[C@H]2CCN[C@H]2C1 [Compound 80, ((2-(((S)-3,3-dimethyl-1-((S)-2-((3aR,6aR)-octahydropyrrolo[3,4-b]pyrrole-5-carbonyl)pyrrolidin-1-yl)-1-oxobutan-2-yl)carbamoyl)benzo[b]thiophen-5-yl)difluoromethyl)phosphonic acid]
> 10 µM	> 10 µM	CC(=O)N1CC[C@@H]2CCN(C(=O)[C@@H]3CCCN3C(=O)[C@@H](NC(=O)c3cc4cc(C(F)(F)P(=O)(O)O)ccc4s3)C(C)(C)C)C[C@@H]21 [Compound 81, ((2-(((S)-1-((S)-2-((3aS,7aR)-1-acetyloctahydro-1H-pyrrolo[2,3-c]pyridine-6-carbonyl)pyrrolidin-1-yl)-3,3-dimethyl-1-oxobutan-2-yl)carbamoyl)benzo[b]thiophen-5-yl)difluoromethyl)phosphonic acid]
> 10 µM	> 10 µM	CCCCC(=O)N1CC[C@@H]2CCN(C(=O)[C@@H]3CCCN3C(=O)[C@@H](NC(=O)c3cc4cc(C(F)(F)P(=O)(O)O)ccc4s3)C(C)(C)C)C[C@@H]21 [Compound 82, ((2-(((S)-3,3-dimethyl-1-oxo-1-((S)-2-((3aS,7aR)-1-pentanoyloctahydro-1H-pyrrolo[2,3-c]pyridine-6-carbonyl)pyrrolidin-1-yl)butan-2-yl)carbamoyl)benzo[b]thiophen-5-yl)difluoromethyl)phosphonic acid]
> 10 µM	> 10 µM	CC(C)(C)[C@H](NC(=O)c1cc2cc(C(F)(F)P(=O)(O)O)ccc2s1)C(=O)N1CCC[C@H]1C(=O)N1CC[C@H]2CCN(C(=O)c3ccc(F)cc3)[C@H]2C1 [Compound 83, (difluoro(2-(((S)-1-((S)-2-((3aS,7aR)-1-(4-fluorobenzoyl)octahydro-1H-pyrrolo[2,3-c]pyridine-6-carbonyl)pyrrolidin-1-yl)-3,3-dimethyl-1-oxobutan-2-yl)carbamoyl)benzo[b]thiophen-5-yl)methyl)phosphonic acid]
> 10 µM	> 10 µM	CC(=O)N1C[C@H]2CCN(C(=O)[C@@H]3CCCN3C(=O)[C@@H](NC(=O)c3cc4cc(C(F)(F)P(=O)(O)O)ccc4s3)C(C)(C)C)[C@H]2C1 [Compound 84, ((2-(((S)-1-((S)-2-((3aR,6aR)-5-acetyloctahydropyrrolo[3,4-b]pyrrole-1-carbonyl)pyrrolidin-1-yl)-3,3-dimethyl-1-oxobutan-2-yl)carbamoyl)benzo[b]thiophen-5-yl)difluoromethyl)phosphonic acid]
> 10 µM	> 10 µM	CCCCC(=O)N1C[C@H]2CCN(C(=O)[C@@H]3CCCN3C(=O)[C@@H](NC(=O)c3cc4cc(C(F)(F)P(=O)(O)O)ccc4s3)C(C)(C)C)[C@H]2C1 [Compound 85, ((2-(((S)-3,3-dimethyl-1-oxo-1-((S)-2-((3aR,6aR)-5-pentanoyloctahydropyrrolo[3,4-b]pyrrole-1-carbonyl)pyrrolidin-1-yl)butan-2-yl)carbamoyl)benzo[b]thiophen-5-yl)difluoromethyl)phosphonic acid]
> 10 µM	> 10 µM	CC(C)(C)[C@H](NC(=O)c1cc2cc(C(F)(F)P(=O)(O)O)ccc2s1)C(=O)N1CCC[C@H]1C(=O)N1CC[C@@H]2CN(C(=O)c3ccc(F)cc3)C[C@@H]21 [Compound 86, (difluoro(2-(((S)-1-((S)-2-((3aR,6aR)-5-(4-fluorobenzoyl)octahydropyrrolo[3,4-b]pyrrole-1-carbonyl)pyrrolidin-1-yl)-3,3-dimethyl-1-oxobutan-2-yl)carbamoyl)benzo[b]thiophen-5-yl)methyl)phosphonic acid]
> 10 µM	> 10 µM	CC(=O)N1CC[C@@H]2CN(C(=O)[C@@H]3CCCN3C(=O)[C@@H](NC(=O)c3cc4cc(C(F)(F)P(=O)(O)O)ccc4s3)C(C)(C)C)C[C@@H]21 [Compound 87, ((2-(((S)-1-((S)-2-((3aR,6aR)-1-acetyloctahydropyrrolo[3,4-b]pyrrole-5-carbonyl)pyrrolidin-1-yl)-3,3-dimethyl-1-oxobutan-2-yl)carbamoyl)benzo[b]thiophen-5-yl)difluoromethyl)phosphonic acid]

Source: US20230295200A1 (REGENTS OF THE UNIVERSITY OF MICHIGAN, priority 2022, published 2023)
